Measurements from PubChem BioAssay (NCI).
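Values below derive from 48-hour exposures of cells grown in 96-well plates, with endpoints linearly interpolated between the two concentrations bracketing the appropriate inhibition level. Abbreviation: GI50, concentration required for 50% inhibition of growth. TGI denotes the concentration required for complete inhibition of growth.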

Columns and labels:
Experiment in all cases: NCI tumour cell line growth inhibition, 48 h
786-0 renal = tested on: 786-0 renal
A498 renal = tested on: A498 renal
A549 NSCLC = tested on: A549 NSCLC
ACHN renal = tested on: ACHN renal
BT-549 breast = tested on: BT-549 breast
CAKI-1 renal = tested on: CAKI-1 renal
CCRF-CEM leukemia = tested on: CCRF-CEM leukemia
COLO 205 colon = tested on: COLO 205 colon
DU-145 prostate = tested on: DU-145 prostate
EKVX NSCLC = tested on: EKVX NSCLC
HCC-2998 colon = tested on: HCC-2998 colon
HCT-116 colon = tested on: HCT-116 colon
HCT-15 colon = tested on: HCT-15 colon
HL-60(TB) leukemia = tested on: HL-60(TB) leukemia
HOP-62 NSCLC = tested on: HOP-62 NSCLC
HOP-92 NSCLC = tested on: HOP-92 NSCLC
HS 578T breast = tested on: HS 578T breast
HT29 colon = tested on: HT29 colon
IGROV1 ovarian = tested on: IGROV1 ovarian
K-562 leukemia = tested on: K-562 leukemia
KM12 colon = tested on: KM12 colon
LOX IMVI melanoma = tested on: LOX IMVI melanoma
M14 melanoma = tested on: M14 melanoma
MALME-3M melanoma = tested on: MALME-3M melanoma
MCF7 breast = tested on: MCF7 breast
MDA-MB-231 breast = tested on: MDA-MB-231 breast
MDA-MB-435 = tested on: MDA-MB-435
MDA-MB-468 breast = tested on: MDA-MB-468 breast
MOLT-4 leukemia = tested on: MOLT-4 leukemia
NCI-H226 lung = tested on: NCI-H226 lung
NCI-H23 lung = tested on: NCI-H23 lung
NCI-H460 lung = tested on: NCI-H460 lung
NCI-H522 lung = tested on: NCI-H522 lung
NCI/ADR-RES ovarian = tested on: NCI/ADR-RES ovarian
OVCAR-3 ovarian = tested on: OVCAR-3 ovarian
OVCAR-4 ovarian = tested on: OVCAR-4 ovarian
OVCAR-5 ovarian = tested on: OVCAR-5 ovarian
OVCAR-8 ovarian = tested on: OVCAR-8 ovarian
PC-3 prostate = tested on: PC-3 prostate
RPMI-8226 leukemia = tested on: RPMI-8226 leukemia
RXF 393 renal = tested on: RXF 393 renal
SF-268 CNS = tested on: SF-268 CNS
SF-295 CNS = tested on: SF-295 CNS
SF-539 CNS = tested on: SF-539 CNS
SK-MEL-2 melanoma = tested on: SK-MEL-2 melanoma
SK-MEL-28 melanoma = tested on: SK-MEL-28 melanoma
SK-MEL-5 melanoma = tested on: SK-MEL-5 melanoma
SK-OV-3 ovarian = tested on: SK-OV-3 ovarian
SN12C renal = tested on: SN12C renal
SNB-19 CNS = tested on: SNB-19 CNS
SNB-75 CNS = tested on: SNB-75 CNS
SR leukemia = tested on: SR leukemia
SW-620 colon = tested on: SW-620 colon
T-47D breast = tested on: T-47D breast
TK-10 renal = tested on: TK-10 renal
U251 CNS = tested on: U251 CNS
UACC-257 melanoma = tested on: UACC-257 melanoma
UACC-62 melanoma = tested on: UACC-62 melanoma
UO-31 renal = tested on: UO-31 renal

Structure (SMILES): COc1ccc2[nH]cc(/C=N/Nc3ccc(Br)cn3)c2c1
- GI50 (786-0 renal): 12.6 µM
- TGI (786-0 renal): 40.1 µM
- GI50 (A498 renal): 20.5 µM
- TGI (A498 renal): 61.7 µM
- GI50 (A549 NSCLC): 8.12 µM
- TGI (A549 NSCLC): > 100 µM
- GI50 (ACHN renal): 7.76 µM
- TGI (ACHN renal): > 100 µM
- GI50 (BT-549 breast): 0.176 µM
- TGI (BT-549 breast): > 100 µM
- GI50 (CAKI-1 renal): 3.01 µM
- TGI (CAKI-1 renal): > 100 µM
- GI50 (CCRF-CEM leukemia): 0.466 µM
- TGI (CCRF-CEM leukemia): 41 µM
- GI50 (COLO 205 colon): 15.7 µM
- TGI (COLO 205 colon): 67.9 µM
- GI50 (DU-145 prostate): 13.3 µM
- TGI (DU-145 prostate): > 100 µM
- GI50 (EKVX NSCLC): 2.71 µM
- TGI (EKVX NSCLC): > 100 µM
- GI50 (HCC-2998 colon): 5.74 µM
- TGI (HCC-2998 colon): 32.5 µM
- GI50 (HCT-116 colon): 5.97 µM
- TGI (HCT-116 colon): > 100 µM
- GI50 (HCT-15 colon): 4.46 µM
- TGI (HCT-15 colon): > 100 µM
- GI50 (HL-60(TB) leukemia): 2.54 µM
- TGI (HL-60(TB) leukemia): 28.3 µM
- GI50 (HOP-62 NSCLC): 10.1 µM
- TGI (HOP-62 NSCLC): > 100 µM
- GI50 (HOP-92 NSCLC): 2.22 µM
- TGI (HOP-92 NSCLC): 19.3 µM
- GI50 (HS 578T breast): 6.91 µM
- TGI (HS 578T breast): 68.2 µM
- GI50 (HT29 colon): 8.77 µM
- TGI (HT29 colon): > 100 µM
- GI50 (IGROV1 ovarian): 0.634 µM
- TGI (IGROV1 ovarian): 6.41 µM
- GI50 (K-562 leukemia): 2.94 µM
- TGI (K-562 leukemia): > 100 µM
- GI50 (KM12 colon): 2.71 µM
- TGI (KM12 colon): 24.7 µM
- GI50 (LOX IMVI melanoma): 3.4 µM
- TGI (LOX IMVI melanoma): 24.7 µM
- GI50 (M14 melanoma): 7.27 µM
- TGI (M14 melanoma): > 100 µM
- GI50 (MALME-3M melanoma): 82.7 µM
- TGI (MALME-3M melanoma): > 100 µM
- GI50 (MCF7 breast): 1.7 µM
- TGI (MCF7 breast): > 100 µM
- GI50 (MDA-MB-231 breast): 1.93 µM
- TGI (MDA-MB-231 breast): 8.71 µM
- GI50 (MDA-MB-435): 6.73 µM
- TGI (MDA-MB-435): > 100 µM
- GI50 (MDA-MB-468 breast): 1.74 µM
- TGI (MDA-MB-468 breast): 6.4 µM
- GI50 (MOLT-4 leukemia): 2.85 µM
- TGI (MOLT-4 leukemia): > 100 µM
- GI50 (NCI-H226 lung): 2.02 µM
- TGI (NCI-H226 lung): > 100 µM
- GI50 (NCI-H23 lung): 11.6 µM
- TGI (NCI-H23 lung): > 100 µM
- GI50 (NCI-H460 lung): 7.68 µM
- TGI (NCI-H460 lung): > 100 µM
- GI50 (NCI-H522 lung): 3.11 µM
- TGI (NCI-H522 lung): 33.5 µM
- GI50 (NCI/ADR-RES ovarian): 5.33 µM
- TGI (NCI/ADR-RES ovarian): > 100 µM
- GI50 (OVCAR-3 ovarian): 11.6 µM
- TGI (OVCAR-3 ovarian): > 100 µM
- GI50 (OVCAR-4 ovarian): 43.2 µM
- TGI (OVCAR-4 ovarian): > 100 µM
- GI50 (OVCAR-5 ovarian): 4.17 µM
- TGI (OVCAR-5 ovarian): 79.4 µM
- GI50 (OVCAR-8 ovarian): 20.8 µM
- TGI (OVCAR-8 ovarian): > 100 µM
- GI50 (PC-3 prostate): 2.55 µM
- TGI (PC-3 prostate): > 100 µM
- GI50 (RPMI-8226 leukemia): 1.62 µM
- TGI (RPMI-8226 leukemia): 9.07 µM
- GI50 (RXF 393 renal): 2.09 µM
- TGI (RXF 393 renal): 31.5 µM
- GI50 (SF-268 CNS): 5.23 µM
- TGI (SF-268 CNS): > 100 µM
- GI50 (SF-295 CNS): 9.13 µM
- TGI (SF-295 CNS): 48.4 µM
- GI50 (SF-539 CNS): 2.65 µM
- TGI (SF-539 CNS): 37.3 µM
- GI50 (SK-MEL-2 melanoma): 21.4 µM
- TGI (SK-MEL-2 melanoma): 81.8 µM
- GI50 (SK-MEL-28 melanoma): 29.1 µM
- TGI (SK-MEL-28 melanoma): > 100 µM
- GI50 (SK-MEL-5 melanoma): 7.41 µM
- TGI (SK-MEL-5 melanoma): 25.3 µM
- GI50 (SK-OV-3 ovarian): 6.19 µM
- TGI (SK-OV-3 ovarian): > 100 µM
- GI50 (SN12C renal): 2.38 µM
- TGI (SN12C renal): 65.9 µM
- GI50 (SNB-19 CNS): 20.7 µM
- TGI (SNB-19 CNS): > 100 µM
- GI50 (SNB-75 CNS): 0.286 µM
- TGI (SNB-75 CNS): 55.1 µM
- GI50 (SR leukemia): 4.8 µM
- TGI (SR leukemia): 58.3 µM
- GI50 (SW-620 colon): 15.7 µM
- TGI (SW-620 colon): > 100 µM
- GI50 (T-47D breast): 3.22 µM
- TGI (T-47D breast): > 100 µM
- GI50 (TK-10 renal): 18.6 µM
- TGI (TK-10 renal): > 100 µM
- GI50 (U251 CNS): 15.9 µM
- TGI (U251 CNS): > 100 µM
- GI50 (UACC-257 melanoma): 25.1 µM
- TGI (UACC-257 melanoma): > 100 µM
- GI50 (UACC-62 melanoma): 8.45 µM
- TGI (UACC-62 melanoma): > 100 µM
- GI50 (UO-31 renal): 1.09 µM
- TGI (UO-31 renal): > 100 µM
